According to the NIST ThermoML archive (doi:10.1016/j.fluid.2015.07.030):

Experiment: refractive index (other wavelength) (dimensionless); xn = mol fraction of the nth substance listed
Conditions: 95.99 kPa, Liquid, Standard Abbe refractometry

OCCOCCOCCO [triethylene glycol] + O
refractive index
Conditions | Wavelength=404.7 nm | Wavelength=435.8 nm | Wavelength=486.1 nm | Wavelength=546.1 nm | Wavelength=587.6 nm | Wavelength=589.3 nm | Wavelength=632.8 nm | Wavelength=644 nm | Wavelength=706.5 nm
293.15 K, x2 = 0 | 1.46928 | 1.46569 | 1.46151 | 1.45803 | 1.45619 | 1.45612 | 1.45455 | 1.4542 | 1.45248
293.15 K, x2 = 0.1056 | 1.46776 | 1.46418 | 1.46003 | 1.45656 | 1.45474 | 1.45467 | 1.45311 | 1.45275 | 1.45102
293.15 K, x2 = 0.2069 | 1.46585 | 1.46229 | 1.45817 | 1.45473 | 1.45293 | 1.45286 | 1.45131 | 1.45095 | 1.44922
293.15 K, x2 = 0.3104 | 1.46244 | 1.45892 | 1.45478 | 1.45137 | 1.44957 | 1.4495 | 1.44796 | 1.4476 | 1.44588
293.15 K, x2 = 0.4844 | 1.45861 | 1.45514 | 1.45102 | 1.44764 | 1.44586 | 1.4458 | 1.44426 | 1.44391 | 1.44221
293.15 K, x2 = 0.5016 | 1.45756 | 1.45412 | 1.45 | 1.44663 | 1.44485 | 1.44479 | 1.44326 | 1.44291 | 1.44121
293.15 K, x2 = 0.5952 | 1.45069 | 1.44731 | 1.44328 | 1.43997 | 1.4382 | 1.43814 | 1.43663 | 1.43669 | 1.4346
293.15 K, x2 = 0.6016 | 1.45072 | 1.44734 | 1.44332 | 1.44002 | 1.43827 | 1.43821 | 1.4367 | 1.43635 | 1.43464
293.15 K, x2 = 0.6788 | 1.44395 | 1.4406 | 1.4367 | 1.43344 | 1.43171 | 1.43165 | 1.4301 | 1.42981 | 1.42813
293.15 K, x2 = 0.7835 | 1.4342 | 1.43091 | 1.42716 | 1.42397 | 1.4223 | 1.42224 | 1.42078 | 1.42043 | 1.41874
293.15 K, x2 = 0.8184 | 1.42884 | 1.42558 | 1.42185 | 1.41872 | 1.41706 | 1.417 | 1.41555 | 1.4152 | 1.41353
293.15 K, x2 = 0.8473 | 1.42267 | 1.41949 | 1.41582 | 1.41276 | 1.41114 | 1.41108 | 1.40964 | 1.4093 | 1.40762
293.15 K, x2 = 0.8719 | 1.41529 | 1.41214 | 1.40852 | 1.40547 | 1.40386 | 1.4038 | 1.40238 | 1.40204 | 1.40038
293.15 K, x2 = 0.8926 | 1.40703 | 1.40391 | 1.40033 | 1.39734 | 1.39576 | 1.3957 | 1.3943 | 1.39396 | 1.39232
293.15 K, x2 = 0.9106 | 1.40148 | 1.39844 | 1.39495 | 1.392 | 1.39044 | 1.39038 | 1.38899 | 1.38865 | 1.387
293.15 K, x2 = 0.9254 | 1.39081 | 1.38783 | 1.38446 | 1.38156 | 1.38004 | 1.37998 | 1.3786 | 1.37827 | 1.37665
293.15 K, x2 = 0.9303 | 1.39206 | 1.38905 | 1.38562 | 1.38273 | 1.3812 | 1.38114 | 1.37976 | 1.37942 | 1.37778
293.15 K, x2 = 0.9391 | 1.38808 | 1.38514 | 1.38176 | 1.37891 | 1.37736 | 1.37731 | 1.37592 | 1.37559 | 1.37396
293.15 K, x2 = 0.951 | 1.38101 | 1.37811 | 1.37479 | 1.37198 | 1.37045 | 1.37039 | 1.36903 | 1.36871 | 1.36871
293.15 K, x2 = 0.9599 | 1.37477 | 1.37194 | 1.36866 | 1.36589 | 1.36436 | 1.36431 | 1.36296 | 1.36264 | 1.36106
293.15 K, x2 = 0.9708 | 1.36673 | 1.36396 | 1.36077 | 1.35803 | 1.35657 | 1.35652 | 1.3552 | 1.35488 | 1.35328
293.15 K, x2 = 0.979 | 1.36151 | 1.35879 | 1.35566 | 1.35294 | 1.35147 | 1.35142 | 1.35011 | 1.3498 | 1.34824
293.15 K, x2 = 0.9867 | 1.35527 | 1.35259 | 1.34949 | 1.34676 | 1.34532 | 1.34526 | 1.34398 | 1.34367 | 1.3421
293.15 K, x2 = 0.9936 | 1.34883 | 1.34624 | 1.34314 | 1.34052 | 1.33907 | 1.33902 | 1.33774 | 1.33744 | 1.33593
298.15 K, x2 = 0 | 1.46749 | 1.4639 | 1.45975 | – | – | – | – | – | –
298.15 K, x2 = 0.1056 | 1.46604 | 1.46248 | 1.45834 | – | – | – | – | – | –
298.15 K, x2 = 0.2069 | 1.46428 | 1.46074 | 1.45661 | – | – | – | – | – | –
298.15 K, x2 = 0.3104 | 1.46096 | 1.45745 | 1.45333 | – | – | – | – | – | –
298.15 K, x2 = 0.4844 | 1.45699 | 1.45354 | 1.44943 | – | – | – | – | – | –
298.15 K, x2 = 0.5016 | 1.45596 | 1.45252 | – | – | – | – | – | – | –
298.15 K, x2 = 0.5952 | 1.44911 | 1.44572 | – | – | – | – | – | – | –
298.15 K, x2 = 0.6016 | 1.44913 | 1.44575 | – | – | – | – | – | – | –
298.15 K, x2 = 0.6788 | 1.44244 | 1.43909 | – | – | – | – | – | – | –
298.15 K, x2 = 0.7835 | 1.43274 | 1.42946 | – | – | – | – | – | – | –
298.15 K, x2 = 0.8184 | 1.42742 | 1.42417 | – | – | – | – | – | – | –
298.15 K, x2 = 0.8473 | 1.42101 | 1.41783 | – | – | – | – | – | – | –
298.15 K, x2 = 0.8719 | 1.41326 | 1.41082 | – | – | – | – | – | – | –
298.15 K, x2 = 0.8926 | 1.40601 | 1.40293 | – | – | – | – | – | – | –
298.15 K, x2 = 0.9106 | 1.40032 | 1.39727 | – | – | – | – | – | – | –
298.15 K, x2 = 0.9254 | 1.38959 | 1.38664 | – | – | – | – | – | – | –
298.15 K, x2 = 0.9303 | 1.39111 | 1.38813 | – | – | – | – | – | – | –
298.15 K, x2 = 0.9391 | 1.38696 | 1.38402 | – | – | – | – | – | – | –
298.15 K, x2 = 0.951 | 1.38004 | 1.37716 | – | – | – | – | – | – | –
298.15 K, x2 = 0.9599 | 1.374 | 1.37117 | – | – | – | – | – | – | –
298.15 K, x2 = 0.9708 | 1.36592 | 1.36317 | – | – | – | – | – | – | –
298.15 K, x2 = 0.979 | 1.36072 | 1.35801 | – | – | – | – | – | – | –
298.15 K, x2 = 0.9867 | 1.35466 | 1.35198 | – | – | – | – | – | – | –
298.15 K, x2 = 0.9936 | 1.34824 | 1.34565 | – | – | – | – | – | – | –
